# According to patent publication US8399417B2, “Food” (Ajinomoto Co., Inc., priority 2007, dated 2013):
# Starred links: 1 amine or outer side, 2 acyl side, 3 side chain; linkers in the order of their positions; H or OH if unused. Non-standard residues stand in square brackets, D forms with d. No end group written: not given here. γGlu = O=C(O)[C@H](CCC(=O)[*:2])N[*:1]; Orn = NCCC[C@H](N)C(=O)O
# Experiments:
# human calcium receptor = biological target: T1, human calcium receptor (Homo sapiens, UniProt P41180); assay: Calcium receptor-activating effect: Ca ion concentration-dependent Cl ionic current in Xenopus laevis oocyte expression system; type: cell-based; settings: for Activity (lowest concentration at which current was detected): peptide added at 1,000 to 0.1 μM to potential-clamped oocytes, Table 1
# T1 construct: expressed in transfected cells; host or cells: Xenopus laevis oocytes injected with cRNA; the gene was PCR-cloned from human kidney cDNA (Clontech) into pBR322
# T1 sequence (P41180 20-1078): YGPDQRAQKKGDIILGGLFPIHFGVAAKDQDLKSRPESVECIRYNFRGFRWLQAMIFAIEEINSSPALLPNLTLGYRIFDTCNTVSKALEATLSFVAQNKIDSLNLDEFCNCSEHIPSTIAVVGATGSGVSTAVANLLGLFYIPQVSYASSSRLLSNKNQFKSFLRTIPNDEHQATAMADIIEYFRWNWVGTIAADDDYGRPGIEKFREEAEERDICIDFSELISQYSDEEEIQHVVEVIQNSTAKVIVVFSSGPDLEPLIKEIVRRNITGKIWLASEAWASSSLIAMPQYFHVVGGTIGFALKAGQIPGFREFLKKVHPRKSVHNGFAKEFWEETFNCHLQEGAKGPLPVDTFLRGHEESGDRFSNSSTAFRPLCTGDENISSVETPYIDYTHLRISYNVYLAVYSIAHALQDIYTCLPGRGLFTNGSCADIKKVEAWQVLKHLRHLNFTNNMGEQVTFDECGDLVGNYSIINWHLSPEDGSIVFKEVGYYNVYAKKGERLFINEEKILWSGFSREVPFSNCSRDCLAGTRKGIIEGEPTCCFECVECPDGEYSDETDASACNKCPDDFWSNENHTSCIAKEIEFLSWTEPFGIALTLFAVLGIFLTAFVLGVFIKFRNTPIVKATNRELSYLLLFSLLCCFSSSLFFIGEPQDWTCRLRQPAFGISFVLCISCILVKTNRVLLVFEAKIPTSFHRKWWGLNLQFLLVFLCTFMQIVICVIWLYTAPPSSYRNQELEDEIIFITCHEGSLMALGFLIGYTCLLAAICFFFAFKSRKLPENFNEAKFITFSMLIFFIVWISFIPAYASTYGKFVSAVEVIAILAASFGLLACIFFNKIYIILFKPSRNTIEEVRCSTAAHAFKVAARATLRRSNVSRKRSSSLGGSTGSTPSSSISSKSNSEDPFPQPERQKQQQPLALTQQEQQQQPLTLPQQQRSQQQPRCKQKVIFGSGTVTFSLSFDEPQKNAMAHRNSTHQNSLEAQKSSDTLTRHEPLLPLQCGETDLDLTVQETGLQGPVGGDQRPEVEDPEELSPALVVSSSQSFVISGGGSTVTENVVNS
# Method: For evaluation of the calcium receptor-activating effect, a Ca ion concentration-dependent Cl ionic current measuring method using a Xenopus laevis oocyte expression system was used. If each activator is added to Xenopus laevis oocytes expressing the calcium receptor, intracellular Ca ions increase. Then, the Ca ion concentration-dependent Cl channel opens, and the intracellular current value changes as an ionic current. By measuring the change in the intracellular current value, whether the calcium receptor-activating effect is present or not can be determined.
# Specifically, the abdomen of Xenopus laevis was opened, and an egg batch was taken out and then treated with a 1% collagenase solution at 20° C. for 2 hours to obtain individual oocytes. Into the oocytes, 50 nl of 1 μg/μl receptor cRNA or 50 nl of sterilized water per oocyte were injected by using a micro glass capillary, and the oocytes were cultured at 18° C. for 2 to 3 days. For the culture, a solution obtained by adding 2 mM pyruvic acid, 10 U/ml penicillin, and 10 μg/ml streptomycin to the solution in Reference Example 2 was used. After the culture, a test solution was added to the oocytes injected with cRNA or sterilized water. Electrophysiological measurement was performed by using an amplifier Geneclamp 500 (manufactured by Axon) and recording software AxoScope 9.0 (manufactured by Axon). The oocytes were membrane potential-clamped at −70 mV by the double electrode potential clamp method, and the intracellular current via the Ca ion concentration-dependent Cl ion was measured. The maximum value of the intracellular current was defined as the response current value.
# The calcium receptor-activating effect of L-amino acids was evaluated by using the method described in Reference Example 6. That is, oocytes injected with cRNA of the calcium receptor or sterilized water were prepared, and membrane potential-clamped at −70 mV by the double electrode potential clamp method. To the potential-clamped oocytes, alanine (10 mM), arginine (10 mM), asparagine (10 mM), aspartic acid (10 mM), cysteine (10 mM), glutamine (10 mM), glutamic acid (10 mM), glycine (10 mM), histidine (10 mM), isoleucine (10 mM), leucine (10 mM), lysine (10 mM), methionine (10 mM), phenylalanine (10 mM), proline (10 mM), serine (10 mM), threonine (10 mM), tryptophan (10 mM), tyrosine (10 mM), valine (10 mM), ornithine (10 mM), taurine (10 mM), or hydroxyproline (10 mM) was added, and Ca ion concentration-dependent Cl response current was measured. […] 25, 2000, 97(9): 4814-9.
# The calcium receptor-activating effect of D-cysteine was evaluated by using the method described in Reference Example 6. That is, oocytes injected with cRNA of the calcium receptor or sterilized water were prepared, and membrane potential-clamped at −70 mV by the double electrode potential clamp method. To the potential-clamped oocytes, D-cysteine (10 mM), L-cysteine (10 mM), D-tryptophan (10 mM), or L-tryptophan (10 mM) was added, and Ca ion concentration-dependent Cl response current was measured.
# The calcium receptor-activating effect of a peptide was evaluated by using the method described in Reference Example 6. That is, oocytes injected with cRNA of the calcium receptor or sterilized water were prepared, and membrane potential-clamped at −70 mV by the double electrode potential clamp method.
# The calcium receptor-activating effects of peptides were evaluated in the same manner as that of Reference Example 10. Each of the peptides shown in Table 1 was added to potential-clamped oocytes at 1,000 μM, 300 μM, 100 μM, 30 μM, 10 μM, 3 μM, 1 μM, 0.3 μM, and 0.1 μM, and Ca ion concentration-dependent Cl response current was measured.
# [1] = Kokumi-imparting activity intensity, quantitative sensory evaluation test; type: in vivo, human; settings: 0.1 g/dl; for Kokumi intensity, Aftertaste / Kokumi intensity, Initial and middle taste: control 0, glutathione 3 points
# Method: The quantitative sensory evaluation test was performed as follows. […] It should be noted that a sample, which became acidic after the sample had been dissolved, was adjusted with NaOH to pH 6.8 to 7.2 before use. […] The test was performed with n=3 based on the following sensory evaluation scores: control (0 point) and glutathione addition (3 points).
# The quantitative sensory evaluation test was performed as follows. […] It should be noted that a sample, which became acidic after the sample had been dissolved, was adjusted with NaOH to pH 6.8 to 7.2 before use. The test was performed with n=5 based on the following sensory evaluation scores: control (0 point) and glutathione addition (3 points).
# The quantitative sensory evaluation test was performed as follows. […] It should be noted that a sample, which became acidic after the sample had been dissolved, was adjusted with NaOH to pH 6.8 to 7.2 before use. The test was performed with n=12 based on the following sensory evaluation scores: control (0 point) and glutathione addition (3 points).
# [2] = sodium glutamate, inosine monophosphate, sodium chloride solution, n=3, Table 3
molecule,measurement,setting,value
"N[C@@H](CS)C(=O)O [cysteine, reference compound]",calcium receptor-activating effect (Cl response current),"human calcium receptor; L-amino acid 10 mM, FIG. 2",definite calcium receptor-activating effect
[γGlu]-Cys,calcium receptor-activating effect (Cl response current),"human calcium receptor; peptide 50 μM, FIG. 4",definite calcium receptor-activating effect
same,"Kokumi intensity, Aftertaste","[1]; n=5, Table 4",2.0 points
same,"Kokumi intensity, Initial and middle taste","[1]; n=5, Table 4",2.0 points
"N[C@@H](Cc1c[nH]c2ccccc12)C(=O)O [tryptophan, reference compound]",calcium receptor-activating effect (Cl response current),"human calcium receptor; L-amino acid 10 mM, FIG. 2",definite calcium receptor-activating effect
"N[C@@H](Cc1c[nH]cn1)C(=O)O [histidine, reference compound]",calcium receptor-activating effect (Cl response current),"human calcium receptor; L-amino acid 10 mM, FIG. 2",definite calcium receptor-activating effect
N[C@H](CS)C(=O)O [D-cysteine],calcium receptor-activating effect (Cl response current),"human calcium receptor; D-amino acid 10 mM, FIG. 3",definite calcium receptor-activating effect
Asp-Gly,calcium receptor-activating effect (Cl response current),"human calcium receptor; peptide 1 mM, FIG. 4",definite calcium receptor-activating effect
[γGlu]-Val-Arg,Activity (lowest concentration at which current was detected),human calcium receptor,"1,000 μM"
"N[C@@H](Cc1ccc(O)cc1)C(=O)O [tyrosine, reference compound]",calcium receptor-activating effect (Cl response current),"human calcium receptor; L-amino acid 10 mM, FIG. 2",definite calcium receptor-activating effect
Leu-Asp,calcium receptor-activating effect (Cl response current),"human calcium receptor; peptide 1 mM, FIG. 4",definite calcium receptor-activating effect
γ-Glu-Tau,Activity (lowest concentration at which current was detected),human calcium receptor,300 µM
Cys-Gly,calcium receptor-activating effect (Cl response current),"human calcium receptor; peptide 1 mM, FIG. 4",definite calcium receptor-activating effect
Gly-Cys,calcium receptor-activating effect (Cl response current),"human calcium receptor; peptide 500 μM, FIG. 4",definite calcium receptor-activating effect
N[C@@H](CCC(=O)N[C@@H](CSN=O)C(=O)NCC(=O)O)C(=O)O [γ-Glu-Cys(SNO)-Gly],calcium receptor-activating effect (Cl response current),"human calcium receptor; peptide 50 μM, FIG. 4",definite calcium receptor-activating effect
[γGlu]-Val,calcium receptor-activating effect (Cl response current),"human calcium receptor; peptide 50 μM, FIG. 4",definite calcium receptor-activating effect
same,"Kokumi intensity, Aftertaste","[1]; n=3, Table 3",1.0 points
same,"Kokumi intensity, Aftertaste","[1]; n=5, Table 4",1.0 points
same,"Kokumi intensity, Initial and middle taste","[1]; n=5, Table 4",3.0 points
same,"Kokumi intensity, Initial and middle taste",[1]; [2],3.0 points
[γGlu]-Val-Met,Activity (lowest concentration at which current was detected),human calcium receptor,"1,000 μM"
[γGlu]-Thr,calcium receptor-activating effect (Cl response current),"human calcium receptor; peptide 50 μM, FIG. 4",definite calcium receptor-activating effect
[γGlu]-Val-Cys,Activity (lowest concentration at which current was detected),human calcium receptor,10 µM
"N[C@@H](Cc1ccccc1)C(=O)O [phenylalanine, reference compound]",calcium receptor-activating effect (Cl response current),"human calcium receptor; L-amino acid 10 mM, FIG. 2",definite calcium receptor-activating effect
[γGlu]-Val-Gln,Activity (lowest concentration at which current was detected),human calcium receptor,10 µM
[γGlu]-Val-[Orn],Activity (lowest concentration at which current was detected),human calcium receptor,100 µM
[γGlu]-Ser-Gly,Activity (lowest concentration at which current was detected),human calcium receptor,30 µM
γ-Glu-Orn,calcium receptor-activating effect (Cl response current),"human calcium receptor; peptide 500 μM, FIG. 4",definite calcium receptor-activating effect
[γGlu]-Val-Ser,Activity (lowest concentration at which current was detected),human calcium receptor,30 µM
[γGlu]-Val-His,Activity (lowest concentration at which current was detected),human calcium receptor,100 µM
γ-Glu-Cys(S-Me)-Gly,Activity (lowest concentration at which current was detected),human calcium receptor,3 µM
[γGlu]-Met,calcium receptor-activating effect (Cl response current),"human calcium receptor; peptide 500 μM, FIG. 4",definite calcium receptor-activating effect
same,Taste profile,"[1]; n=3, Table 3",Thickness and growth are slightly
same,"Kokumi intensity, Aftertaste","[1]; n=3, Table 3",0.4 points
same,"Kokumi intensity, Initial and middle taste",[1]; [2],1.5 points
γ-Glu-Cys(S-allyl)-Gly,Activity (lowest concentration at which current was detected),human calcium receptor,100 µM
Glu-Cys,calcium receptor-activating effect (Cl response current),"human calcium receptor; peptide 50 μM, FIG. 4",definite calcium receptor-activating effect
[γGlu]-Val-Phe,Activity (lowest concentration at which current was detected),human calcium receptor,30 µM
[γGlu]-Val-Pro,Activity (lowest concentration at which current was detected),human calcium receptor,30 µM
[γGlu]-Gly,calcium receptor-activating effect (Cl response current),"human calcium receptor; peptide 500 μM, FIG. 4",definite calcium receptor-activating effect
[γGlu]-[γGlu]-Val,Activity (lowest concentration at which current was detected),human calcium receptor,"1,000 μM"
[γGlu]-Val-Lys,Activity (lowest concentration at which current was detected),human calcium receptor,"1,000 μM"
γ-Glu-Val-Asp,Activity (lowest concentration at which current was detected),human calcium receptor,"1,000 μM"
[γGlu]-Val-Asn,Activity (lowest concentration at which current was detected),human calcium receptor,30 µM
[γGlu]-Val-Thr,Activity (lowest concentration at which current was detected),human calcium receptor,"1,000 μM"
[γGlu]-Val-Glu,Activity (lowest concentration at which current was detected),human calcium receptor,"1,000 μM"
Cys-Met,calcium receptor-activating effect (Cl response current),"human calcium receptor; peptide 1 mM, FIG. 4",definite calcium receptor-activating effect
γ-Glu-t-Leu,Activity (lowest concentration at which current was detected),human calcium receptor,100 µM
[γGlu]-Gly-Gly,Activity (lowest concentration at which current was detected),human calcium receptor,30 µM
[γGlu]-Val-Val,Activity (lowest concentration at which current was detected),human calcium receptor,"1,000 μM"
[γGlu]-Ala,calcium receptor-activating effect (Cl response current),"human calcium receptor; peptide 50 μM, FIG. 4",definite calcium receptor-activating effect
same,"Kokumi intensity, Aftertaste","[1]; n=3, Table 3",0.2 points
same,"Kokumi intensity, Initial and middle taste",[1]; [2],0.5 points
